Type in all cases: cell-based
Assay [1] has as its target T1, EGFR exon 20 SVD Ins D770_N771 (Ba/F3 cells) (Homo sapiens, UniProt P00533, INS770SVD).
T1 construct: expressed in transfected cells; host or cells: Ba/F3 (murine pro-B cells), retroviral transduction, puromycin selection, IL3-independent pool
As to the kind of experiment: Inhibitor activity on EGFR-dependent cell growth (CellTiter-Glo, 72 h), Ba/F3 EGFR exon 20 SVD Ins. The note with it: read-out: BaF3 SVD IC50. The essentials: (§1)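 IC50s derive from a sigmoidal dose–response fit of CellTiter-Glo signal. The signal was normalised between […]-treated cells and cell-free medium. Ba/F3 mutant-EGFR cells, seeded at 400–800/well depending on the line, had 72 h of exposure to a 10-point, 3-fold compound series.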
On the technique in general: Cellular ATP, detected with luciferase, serves as a proxy for viable cell number.

In assay [2] the target is EGFR exon 19del (Ba/F3 cells) (Homo sapiens, UniProt P00533). As to the kind of experiment: Inhibitor activity on EGFR-dependent cell growth (CellTiter-Glo, 72 h), Ba/F3 EGFR exon 19del. The settings on record: Ba/F3 EGFR exon 19del cell growth, read-out: BaF3 Del19 IC50. The source says:
(§2) Example A. Inhibitor Activity on EGFR-Dependent Cell Growth
(§3) Cell lines are generated by transducing Ba/F3 cells with retroviruses containing vectors with EGFR WT, EGFR L858R, EGFR exon 19del, EGFR L858R/C797S, EGFR exon 20 NPG Ins D770_N771, EGFR exon 20 ASV Ins V769_D770, EGFR exon 20 SVD Ins D770_N771, or EGFR exon 20 FQEA Ins A763_V764 genes and a puromycin selection marker. Transduced cells are selected with puromycin for 7 days and are then be transferred into culture media without Interleukin 3 (IL3). EGFR WT cells are maintained with supplemental EGF. Surviving cells are confirmed to express EGFR by Western blot and maintained as a pool. The IC50 date were included in Table 6 and Table 7.
(§4) 1.1 Cells are harvested from flask into cell culture medium and the cell number counted.
(§5) 1.2 Cells are diluted with culture medium to the desired density and 40 μL of cell suspension is added into each well of 384-well cell culture plate and the seeding density is 800 (FQEA, exon 19del), 600 (WT, NPG, L858R/C797S), or 400 (ASV, SVD, L858R) cells/well.
(§6) 2 Compound Preparation and Treatment
(§7) 2.1 Test compounds are dissolved to 10 mM in a DMSO stock solution. 45 μL of stock solution is transferred to a 384 polypropylene plate (pp-plate). Perform 3-fold, 10-point dilution via transferring 15 μL compound into 30 μL DMSO using a TECAN (EVO200) liquid handler.
(§8) 2.2 Spin plates at room temperature at 1,000 RPM for 1 minute.
(§9) 2.3 Transfer 120 nL of diluted compound from compound source plate into the cell plate.
(§10) 2.4 After compound treatment for 72 hours, perform CTG detection for compound treatment plates as described in “Detection” section.
(§11) 3.1 Plates are removed from incubators and equilibrated at room temperature for 15 minutes.
(§12) 3.2 Thaw the CellTiter Glo reagents and allow to equilibrate to room temperature before the experiment.
(§13) 3.3 Add 40 μL of CellTiter-Glo reagent into each well (at 1:1 to culture medium). Then place the plates at room temperature for 30 min followed by reading on EnVision.
(§14) 4.1 Inhibition activity is calculated following the formula below:
(§15) % Inhibition=100×(LumHC−LumSample)/(LumHC−LumLC) • where HC is obtained from cells treated with 0.1% DMSO only; and LC is obtained from culture medium only.
(§16) 4.2 2. Calculate the IC50 by fitting the Curve using Xlfit (v5.3.1.3), equation 201.
(§17) Y=Bottom+(Top−Bottom)/(1+10^((Log IC50−X)*HillSlope))

Assay [3] has as its target T2, EGFR L858R (Ba/F3 cells) (Homo sapiens, UniProt P00533, L858R).
T2 construct: expressed in transfected cells; host or cells: Ba/F3 (murine pro-B cells), retroviral transduction, puromycin selection, IL3-independent pool
Description: Inhibitor activity on EGFR-dependent cell growth (CellTiter-Glo, 72 h), Ba/F3 EGFR L858R. The settings on record: read-out: BaF3 L858R IC50.
Description: as §2, §3, §4, §5, §6, §7, §8, §9, §10, §11, §12, §13, §14, §15, §16, §17

The target of assay [4] is T3, EGFR exon 20 ASV Ins V769_D770 (Ba/F3 cells) (Homo sapiens, UniProt P00533, INS769ASV).
T3 construct: expressed in transfected cells; host or cells: Ba/F3 (murine pro-B cells), retroviral transduction, puromycin selection, IL3-independent pool
As to the kind of experiment: Inhibitor activity on EGFR-dependent cell growth (CellTiter-Glo, 72 h), Ba/F3 EGFR exon 20 ASV Ins. The note with it: read-out: BaF3 ASV IC50. A digest of the protocol: as §1

Assay [5] has as its target T4, EGFR WT (Ba/F3 cells) (Homo sapiens, UniProt P00533).
T4 construct: expressed in transfected cells; host or cells: Ba/F3 (murine pro-B cells), retroviral transduction, puromycin selection, maintained with EGF
Description: Inhibitor activity on EGFR-dependent cell growth (CellTiter-Glo, 72 h), Ba/F3 EGFR WT. The settings on record: read-out: BaF3 WT IC50. A digest of the protocol: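 This growth assay used Ba/F3 cells that depend on wild-type EGFR and are kept in EGF without IL3. Compounds were made up as 10 mM DMSO stocks and diluted 3-fold over 10 points. 120 nL went onto 600 cells/well. After 72 hours, 40 μL CellTiter-Glo was added and luminescence read on EnVision after 30 min.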

Assay [6] addresses T5, EGFR exon 20 FQEA Ins A763_V764 (Ba/F3 cells) (Homo sapiens, UniProt P00533, INS763FQEA).
T5 construct: expressed in transfected cells; host or cells: Ba/F3 (murine pro-B cells), retroviral transduction, puromycin selection, IL3-independent pool
As to the kind of experiment: Inhibitor activity on EGFR-dependent cell growth (CellTiter-Glo, 72 h), Ba/F3 EGFR exon 20 FQEA Ins. The settings on record: read-out: BaF3 FQEA IC50. The essentials: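 For each mutant line, growth depends on EGFR signalling in the absence of IL3. Density per well: 400 for L858R, 600 for the C797S double mutant, 800 for exon 19del and FQEA. Ten threefold dilutions were applied for 72 h. %Inhibition = 100×(DMSO − sample)/(DMSO − medium blank).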

Assay [7] concerns the target T6, EGFR exon 20 NPG Ins D770_N771 (Ba/F3 cells) (Homo sapiens, UniProt P00533, INS770NPG).
T6 construct: expressed in transfected cells; host or cells: Ba/F3 (murine pro-B cells), retroviral transduction, puromycin selection, IL3-independent pool
Description: Inhibitor activity on EGFR-dependent cell growth (CellTiter-Glo, 72 h), Ba/F3 EGFR exon 20 NPG Ins. The note with it: read-out: BaF3 NPG IC50. A digest of the protocol:
as §1

The target in assay [8] is T6, EGFR exon 20 NPG Ins D770_N771 (Ba/F3 cells). Description: Inhibitor activity on EGFR phosphorylation (pEGFR AlphaLISA, 2 h), Ba/F3 EGFR exon 20 NPG Ins. A digest of the protocol: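 IC50 values reflect inhibition of cellular EGFR phosphorylation, measured by AlphaLISA in lysates. Engineered Ba/F3 pools expressing mutant EGFR, selected with puromycin and cultured IL3-free, or CUTO14 cells, were exposed to compound for 2 hours.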
In general terms: Alpha assays give light when donor and acceptor beads are brought close together.

What is called IC50 is the concentration that gives 50% inhibition.

Sequence of EGFR exon 19del (Ba/F3 cells) (P00533 with tags, fused parts or gaps DEL746-750): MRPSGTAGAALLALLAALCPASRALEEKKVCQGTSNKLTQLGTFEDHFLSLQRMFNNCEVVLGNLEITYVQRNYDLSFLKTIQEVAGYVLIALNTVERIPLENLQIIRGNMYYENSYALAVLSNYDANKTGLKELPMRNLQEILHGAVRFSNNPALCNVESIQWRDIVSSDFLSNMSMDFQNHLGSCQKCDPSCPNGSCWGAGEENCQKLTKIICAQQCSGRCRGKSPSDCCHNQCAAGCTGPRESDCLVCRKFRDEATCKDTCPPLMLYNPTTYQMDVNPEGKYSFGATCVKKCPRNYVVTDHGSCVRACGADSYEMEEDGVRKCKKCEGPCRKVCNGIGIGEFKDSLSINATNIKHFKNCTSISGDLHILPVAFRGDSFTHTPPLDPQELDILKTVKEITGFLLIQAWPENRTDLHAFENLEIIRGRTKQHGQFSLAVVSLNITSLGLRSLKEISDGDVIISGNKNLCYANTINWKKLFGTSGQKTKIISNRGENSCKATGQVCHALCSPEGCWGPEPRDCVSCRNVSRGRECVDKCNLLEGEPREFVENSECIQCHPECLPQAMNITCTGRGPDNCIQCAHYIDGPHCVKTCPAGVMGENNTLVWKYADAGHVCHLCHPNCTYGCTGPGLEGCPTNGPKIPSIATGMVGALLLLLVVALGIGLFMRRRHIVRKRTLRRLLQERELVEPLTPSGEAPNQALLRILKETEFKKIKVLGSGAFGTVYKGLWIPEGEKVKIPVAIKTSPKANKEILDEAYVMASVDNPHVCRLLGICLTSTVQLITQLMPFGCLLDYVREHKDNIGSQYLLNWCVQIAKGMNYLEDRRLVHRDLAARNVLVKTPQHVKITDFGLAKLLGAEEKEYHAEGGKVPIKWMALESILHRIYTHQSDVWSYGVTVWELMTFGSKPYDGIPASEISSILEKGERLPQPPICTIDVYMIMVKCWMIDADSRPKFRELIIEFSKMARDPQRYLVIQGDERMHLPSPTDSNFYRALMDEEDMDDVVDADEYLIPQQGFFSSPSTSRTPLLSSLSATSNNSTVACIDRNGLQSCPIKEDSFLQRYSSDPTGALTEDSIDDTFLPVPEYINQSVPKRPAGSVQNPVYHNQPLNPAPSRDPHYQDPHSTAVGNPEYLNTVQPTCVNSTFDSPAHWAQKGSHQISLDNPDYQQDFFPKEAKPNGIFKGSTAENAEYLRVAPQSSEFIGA
T5 sequence (P00533 with tags, fused parts or gaps INS763FQEA): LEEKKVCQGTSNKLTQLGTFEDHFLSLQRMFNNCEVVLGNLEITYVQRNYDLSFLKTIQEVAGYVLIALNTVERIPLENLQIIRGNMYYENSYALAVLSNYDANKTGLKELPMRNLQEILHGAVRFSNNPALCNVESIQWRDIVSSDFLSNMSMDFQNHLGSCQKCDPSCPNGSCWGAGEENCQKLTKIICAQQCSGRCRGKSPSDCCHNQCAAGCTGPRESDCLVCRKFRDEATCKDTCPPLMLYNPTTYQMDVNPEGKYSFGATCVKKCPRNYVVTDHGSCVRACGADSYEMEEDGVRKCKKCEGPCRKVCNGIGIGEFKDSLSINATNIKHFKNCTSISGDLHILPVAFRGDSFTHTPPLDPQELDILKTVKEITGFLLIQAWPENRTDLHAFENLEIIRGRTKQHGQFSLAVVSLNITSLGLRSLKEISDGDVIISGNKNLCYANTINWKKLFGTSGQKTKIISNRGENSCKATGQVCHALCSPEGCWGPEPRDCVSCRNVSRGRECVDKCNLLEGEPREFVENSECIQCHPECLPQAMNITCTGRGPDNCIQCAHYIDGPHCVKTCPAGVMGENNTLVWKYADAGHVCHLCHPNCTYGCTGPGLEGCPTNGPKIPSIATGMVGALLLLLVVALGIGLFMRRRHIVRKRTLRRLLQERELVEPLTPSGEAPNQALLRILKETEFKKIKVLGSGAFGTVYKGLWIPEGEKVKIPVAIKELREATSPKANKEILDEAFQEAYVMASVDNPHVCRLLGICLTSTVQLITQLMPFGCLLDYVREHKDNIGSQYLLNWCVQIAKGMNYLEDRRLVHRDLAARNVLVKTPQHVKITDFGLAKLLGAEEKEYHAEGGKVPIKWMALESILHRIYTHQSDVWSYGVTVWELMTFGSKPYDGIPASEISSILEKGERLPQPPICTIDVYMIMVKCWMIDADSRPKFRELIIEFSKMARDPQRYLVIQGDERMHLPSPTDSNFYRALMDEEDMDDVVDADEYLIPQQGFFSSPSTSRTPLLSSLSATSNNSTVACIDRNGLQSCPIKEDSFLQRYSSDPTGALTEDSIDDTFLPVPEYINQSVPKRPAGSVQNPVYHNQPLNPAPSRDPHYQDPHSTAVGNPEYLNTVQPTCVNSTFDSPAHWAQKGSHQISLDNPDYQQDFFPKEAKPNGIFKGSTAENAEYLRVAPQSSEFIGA
T6 sequence (P00533 with tags, fused parts or gaps INS770NPG): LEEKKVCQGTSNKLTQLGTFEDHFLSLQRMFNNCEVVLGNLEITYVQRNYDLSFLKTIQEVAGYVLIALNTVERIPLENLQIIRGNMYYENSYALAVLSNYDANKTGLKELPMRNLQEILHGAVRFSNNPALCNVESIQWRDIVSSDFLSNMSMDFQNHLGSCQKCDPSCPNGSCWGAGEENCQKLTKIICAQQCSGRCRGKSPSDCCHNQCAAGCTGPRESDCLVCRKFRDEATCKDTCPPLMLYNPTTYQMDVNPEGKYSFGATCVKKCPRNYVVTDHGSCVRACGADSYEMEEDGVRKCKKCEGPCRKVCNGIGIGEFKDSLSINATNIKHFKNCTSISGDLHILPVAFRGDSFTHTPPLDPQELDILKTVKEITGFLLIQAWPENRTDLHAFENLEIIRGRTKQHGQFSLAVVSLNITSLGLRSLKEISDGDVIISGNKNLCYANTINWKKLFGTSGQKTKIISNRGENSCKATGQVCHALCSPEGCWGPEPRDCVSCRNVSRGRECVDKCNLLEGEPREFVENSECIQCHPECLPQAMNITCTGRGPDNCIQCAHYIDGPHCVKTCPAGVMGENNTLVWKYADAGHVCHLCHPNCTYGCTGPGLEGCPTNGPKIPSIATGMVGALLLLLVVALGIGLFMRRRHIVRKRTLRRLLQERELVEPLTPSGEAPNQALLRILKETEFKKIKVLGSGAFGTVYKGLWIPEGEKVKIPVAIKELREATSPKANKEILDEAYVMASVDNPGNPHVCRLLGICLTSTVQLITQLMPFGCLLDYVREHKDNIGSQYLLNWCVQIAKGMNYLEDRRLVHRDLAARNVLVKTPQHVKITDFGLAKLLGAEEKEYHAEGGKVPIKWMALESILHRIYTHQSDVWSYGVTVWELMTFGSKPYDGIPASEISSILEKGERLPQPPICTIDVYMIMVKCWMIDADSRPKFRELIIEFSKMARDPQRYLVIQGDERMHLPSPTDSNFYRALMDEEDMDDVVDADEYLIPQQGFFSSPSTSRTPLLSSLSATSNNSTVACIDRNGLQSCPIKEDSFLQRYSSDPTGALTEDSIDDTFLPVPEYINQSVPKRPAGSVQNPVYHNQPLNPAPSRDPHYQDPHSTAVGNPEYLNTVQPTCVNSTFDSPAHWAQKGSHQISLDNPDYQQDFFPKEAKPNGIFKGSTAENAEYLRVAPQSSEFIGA
T3 sequence (P00533 with tags, fused parts or gaps INS769ASV): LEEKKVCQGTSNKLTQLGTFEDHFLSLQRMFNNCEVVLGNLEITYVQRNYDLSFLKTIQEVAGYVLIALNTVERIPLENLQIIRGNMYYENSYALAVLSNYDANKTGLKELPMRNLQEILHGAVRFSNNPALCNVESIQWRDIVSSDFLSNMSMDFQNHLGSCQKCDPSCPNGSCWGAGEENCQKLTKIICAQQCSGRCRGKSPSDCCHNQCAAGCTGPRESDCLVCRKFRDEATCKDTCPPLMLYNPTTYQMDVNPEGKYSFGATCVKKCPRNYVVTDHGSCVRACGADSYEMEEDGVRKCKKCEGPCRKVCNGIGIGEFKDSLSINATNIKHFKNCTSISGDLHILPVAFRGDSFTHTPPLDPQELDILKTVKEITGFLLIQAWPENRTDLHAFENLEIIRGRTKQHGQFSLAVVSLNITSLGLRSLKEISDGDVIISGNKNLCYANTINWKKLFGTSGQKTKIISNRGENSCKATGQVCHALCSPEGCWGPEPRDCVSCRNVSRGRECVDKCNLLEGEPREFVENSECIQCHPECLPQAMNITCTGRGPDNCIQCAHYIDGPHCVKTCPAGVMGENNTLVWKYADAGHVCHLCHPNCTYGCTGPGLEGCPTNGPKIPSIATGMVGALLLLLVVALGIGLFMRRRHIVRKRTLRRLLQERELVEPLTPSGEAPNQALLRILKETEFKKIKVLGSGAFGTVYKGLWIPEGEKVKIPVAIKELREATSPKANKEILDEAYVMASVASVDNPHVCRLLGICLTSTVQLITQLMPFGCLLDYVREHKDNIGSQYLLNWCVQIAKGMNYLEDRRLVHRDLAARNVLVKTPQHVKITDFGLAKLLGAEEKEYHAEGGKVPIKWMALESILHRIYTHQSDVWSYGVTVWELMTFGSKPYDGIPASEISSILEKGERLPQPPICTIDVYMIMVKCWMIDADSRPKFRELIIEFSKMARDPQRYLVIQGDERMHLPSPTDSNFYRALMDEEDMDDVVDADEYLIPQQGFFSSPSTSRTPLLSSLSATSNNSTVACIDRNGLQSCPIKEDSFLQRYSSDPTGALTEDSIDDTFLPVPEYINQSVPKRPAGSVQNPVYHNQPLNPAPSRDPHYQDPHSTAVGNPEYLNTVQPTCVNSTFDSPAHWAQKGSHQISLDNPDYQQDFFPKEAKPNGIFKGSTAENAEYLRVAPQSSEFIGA

For `Cc1ccc2nccc(-c3[nH]c4c(c3Nc3cccc(F)c3C)C(=O)NCC4)c2n1` [Compound 810, 3-[(3-fluoro-2-methylphenyl)amino]-2-(6-methyl-1,5-naphthyridin-4-yl)-1H,5H,6H,7H-pyrrolo[3,2-c]pyridin-4-one], the IC50 is below 100 nM in assay [1]; below 100 nM in assay [2]; below 100 nM in assay [3]; below 100 nM in assay [4]; 100 to 1000 nM in assay [5]; below 100 nM in assay [6].
`COCC[C@@H]1CNC(=O)c2c1[nH]c(-c1ccnc(C)n1)c2Nc1cccc(F)c1OC` [453a]: the IC50 in assay [1] is 100 to 1000 nM; in assay [2], below 100 nM; in assay [3], below 100 nM; in assay [4] it was 100 to 1000 nM; in assay [5], above 1000 nM; in assay [7], 100 to 1000 nM.
As for `CC[C@@H]1CNC(=O)c2c1[nH]c(-c1ccnc(N)n1)c2Nc1cccc(Cl)c1OC` [189a], the IC50 in assay [1] was below 100 nM; in assay [2], below 100 nM; in assay [3] it was below 100 nM; in assay [4] it was below 100 nM; in assay [5], 100 to 1000 nM; in assay [6], below 100 nM. For the same compound, in assay [7], the IC50 is below 100 nM.
For `COc1c(F)cccc1Nc1c(-c2ccncc2F)[nH]c2c1C(=O)NC[C@H]2C[C@@H]1CCO1` [Compound 422a, (7R)-3-[(3-fluoro-2-methoxyphenyl)amino]-2-(3-fluoropyridin-4-yl)-7-[(2R)-oxetan-2-ylmethyl]-1H,5H,6H,7H-pyrrolo[3,2-c]pyridin-4-one], the IC50 was below 100 nM in assay [1]; below 100 nM in assay [8]; below 100 nM in assay [2]; below 100 nM in assay [3]; below 100 nM in assay [4]; 100 to 1000 nM in assay [5]. Also, the values for the IC50 in assay [6] and in assay [7] were 100 to 1000 nM and below 100 nM, respectively.
With `COc1c(F)cccc1Nc1c(-c2ccnc3ccoc23)[nH]c2c1C(=O)NCC2` [Compound 553, 3-[(3-fluoro-2-methoxyphenyl)amino]-2-{furo[3,2-b]pyridin-7-yl}-1H,5H,6H,7H-pyrrolo[3,2-c]pyridin-4-one], the half-maximal inhibitory concentration (IC50) in assay [1] was below 100 nM; in assay [2], below 100 nM; in assay [3] it was below 100 nM; in assay [4], below 100 nM; in assay [5], 100 to 1000 nM; in assay [6], below 100 nM.
For `COc1c(Cl)cccc1Nc1c(-c2ccnc3ccc(OC4CC(F)(F)C4)nc23)[nH]c2c1C(=O)NCC2` [Compound 766, 3-[(3-chloro-2-methoxyphenyl)amino]-2-[6-(3,3-difluorocyclobutoxy)-1,5-naphthyridin-4-yl]-1H,5H,6H,7H-pyrrolo[3,2-c] pyridin-4-one], the half-inhibitory concentration (IC50) in assay [1] is below 100 nM; in assay [2], below 100 nM; in assay [3], below 100 nM; in assay [4], below 100 nM; in assay [5] it was 100 to 1000 nM; in assay [6] it was below 100 nM. In addition, the IC50 in assay [7] was below 100 nM.
Regarding `COCc1ccc2nccc(-c3[nH]c4c(c3Nc3cccc(Cl)c3OC)C(=O)NCC4)c2n1` [compound 679, 3-[(3-chloro-2-methoxyphenyl)amino]-2-[6-(methoxymethyl)-1,5-naphthyridin-4-yl]-1H,5H,6H,7H-pyrrolo[3,2-c]pyridin-4-one], the IC50 in assay [1], in assay [2], in assay [3], in assay [4], in assay [5] and in assay [6] was below 100 nM in each case. For the same compound, the IC50 in assay [7] was below 100 nM.
Regarding `COc1ccc2nccc(-c3[nH]c4c(c3Nc3cccc(Cl)c3OC)C(=O)NC[C@H]4C)c2n1` [310a], the IC50 in assay [1], in assay [2], in assay [3], in assay [4], in assay [5] and in assay [6] was below 100 nM throughout. Further, in assay [7], the IC50 was below 100 nM.
Regarding `COCCC1(C)CNC(=O)c2c1[nH]c(-c1ccncc1F)c2Nc1cccc(Cl)c1OC` (single isomer, unassigned) [Compound 779], the IC50 is […] in assay [2]; […] in assay [3]; […] in assay [4]; […] in assay [5]; […] in assay [6]; […] in assay [7].
Turning to `COc1c(Cl)cccc1Nc1c(-c2ccnc(C)n2)[nH]c2c1C(=O)NC[C@H]2CC1COCCO1` (stereo in doubt) [Compound 573, (7R)-3-[(3-chloro-2-methoxyphenyl)amino]-7-[(2R)-1,4-dioxan-2-ylmethyl]-2-(2-methylpyrimidin-4-yl)-1H,5H,6H,7H-pyrrolo[3,2-c]pyridin-4-one], the concentration for half-maximal inhibition (IC50) in assay [8] is below 100 nM; in assay [2] it was below 100 nM; in assay [3], below 100 nM; in assay [5] it was 100 to 1000 nM; in assay [7], below 100 nM.
Take `COCC[C@@H]1CNC(=O)c2c1[nH]c(-c1ccncc1F)c2Nc1cccc(F)c1C` [compound 823]: the IC50 in assay [1], in assay [2], in assay [3], in assay [4], in assay [5] and in assay [6] was below 100 nM in each case.
Regarding `CCO[C@@H](C)c1ccc2nccc(-c3[nH]c4c(c3Nc3cccc(Cl)c3OC)C(=O)NCC4)c2n1` [compound 754, 3-[(3-chloro-2-methoxyphenyl)amino]-2-[6-[(1S)-1-ethoxyethyl]-1,5-naphthyridin-4-yl]-1H,5H,6H,7H-pyrrolo[3,2-c]pyridin-4-one; trifluoroacetic acid], the half-inhibitory concentration (IC50) in assay [1], in assay [2], in assay [3], in assay [4], in assay [5] and in assay [6] was below 100 nM in each case. In addition, the IC50 in assay [7] is below 100 nM.
